The source of these data is patent publication US20260028336A1 (Arcus Biosciences, Inc., priority 2022, published 2026).

SMILES strings stand for the structures.

The target of assay [1] is T1, Cbl-b (Homo sapiens, UniProt Q13191).
T1 construct: biotin (biotinylated)
Description: Cbl-b probe displacement HTRF binding assay. The following applies: 0.4 nM biotinylated Cbl-b, 150 nM BODIPY probe. In outline:
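Biotinylated Cbl-b was preincubated with compound for 60 min at room temperature in HEPES/NaCl/Triton/TCEP/BSA buffer. BODIPY probe was added for 15 min, followed by streptavidin-terbium, and the HTRF signal was read. Displacement was normalised to DMSO and no-protein controls, and affinity was obtained from a four-parameter dose-response fit.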
For orientation: Time-resolved FRET reads energy transfer from a long-lived donor to a nearby acceptor.

Assay [2] has as its system Jurkat cells. The assay can be described thus: IL-2 secretion assay in CD3/CD28-activated Jurkat cells (AlphaLISA). In kind it is cell-based. The following applies: Homo sapiens, CD3/CD28 T Cell Activator, 24 h, IL-2 AlphaLISA. The protocol: Certain compounds were also evaluated in an IL-2 secretion assay. On the day of the assay, a 16 point, 1:2 master serial dilution of each compound was prepared in Opti-MEM to span a final concentration range of 10 μM to 300 pM. Assays were set up in CORNING® tissue culture-treated 384-well microplates containing 60 nL of each dilution. […] 50,000 cells/well and added to the compound plates. After a short spin (1200 rpm for 1 min), the plates were incubated at 37° C. for 1 hour. The cells were activated by adding 15 μL of IMMUNOCULT™ Human CD3/CD28 T Cell Activator ([…] Technologies) diluted in Opti-MEM. […] The AiphaLISA signal was measured using an EnVision plate reader (PerkinElmer). EC50 values were determined by fitting the data to a standard 4-parameter logistic equation.
(In Alpha technology, singlet oxygen from a donor bead excites a nearby acceptor bead.)

T1 sequence (Q13191 whole entry, species assumed): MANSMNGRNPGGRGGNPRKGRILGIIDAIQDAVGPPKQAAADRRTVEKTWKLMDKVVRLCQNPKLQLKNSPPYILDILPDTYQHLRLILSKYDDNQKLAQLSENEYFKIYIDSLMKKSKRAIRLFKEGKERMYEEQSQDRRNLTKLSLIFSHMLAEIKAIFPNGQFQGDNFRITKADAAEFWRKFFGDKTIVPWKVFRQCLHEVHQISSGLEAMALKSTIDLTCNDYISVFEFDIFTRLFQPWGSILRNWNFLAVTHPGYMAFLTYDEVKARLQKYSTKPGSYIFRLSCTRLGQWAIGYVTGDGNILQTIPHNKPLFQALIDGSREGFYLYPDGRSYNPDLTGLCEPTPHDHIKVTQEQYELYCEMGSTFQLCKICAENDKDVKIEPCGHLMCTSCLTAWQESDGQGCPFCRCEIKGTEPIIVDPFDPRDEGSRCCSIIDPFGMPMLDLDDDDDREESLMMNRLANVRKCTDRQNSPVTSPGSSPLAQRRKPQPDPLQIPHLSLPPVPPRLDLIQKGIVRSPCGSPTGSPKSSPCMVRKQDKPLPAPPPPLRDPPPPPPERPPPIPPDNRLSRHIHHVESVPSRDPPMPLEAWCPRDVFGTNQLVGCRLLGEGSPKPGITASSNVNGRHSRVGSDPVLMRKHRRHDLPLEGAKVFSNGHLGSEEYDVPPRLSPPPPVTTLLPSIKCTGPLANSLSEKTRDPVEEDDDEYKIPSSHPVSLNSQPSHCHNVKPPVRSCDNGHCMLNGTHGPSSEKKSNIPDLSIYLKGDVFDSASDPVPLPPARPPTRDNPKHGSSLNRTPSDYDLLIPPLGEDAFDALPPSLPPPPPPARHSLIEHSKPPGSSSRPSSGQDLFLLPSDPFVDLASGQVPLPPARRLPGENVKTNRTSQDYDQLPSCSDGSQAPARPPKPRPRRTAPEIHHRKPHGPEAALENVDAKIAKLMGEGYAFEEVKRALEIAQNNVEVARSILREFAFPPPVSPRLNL

`CC1CC(c2cccc(-n3cc(C4CC4)c4cc(CN5CCO[C@H](C)C5)[nH]c4c3=O)c2)(c2nncn2C)C1` (stereo partly drawn) [Example 45, 4-cyclopropyl-6-{3-[3-methyl-1-(4-methyl-4H-1,2,4-triazol-3-yl)cyclobutyl]phenyl}-2-{[(2R)-2-methylmorpholin-4-yl]methyl}-1H,6H,7H-pyrrolo[2,3-c]pyridin-7-one] returned an IC50 in assay [1] below 100 nM. Further, the concentration for a half-maximal effect (EC50) in assay [2] was below 100 nM.
In turn, `CC1CC(c2cccc(-n3cc(C4CC4)c4cc(CNCCOC(F)(F)F)[nH]c4c3=O)c2)(c2nncn2C)C1` (stereo not drawn) [Example 46, 4-cyclopropyl-6-{3-[3-methyl-1-(4-methyl-4H-1,2,4-triazol-3-yl)cyclobutyl]phenyl}-2-({[2-(trifluoromethoxy)ethyl]amino}methyl)-1H,6H,7H-pyrrolo[2,3-c]pyridin-7-one] showed a concentration for half-maximal inhibition (IC50) in assay [1] below 100 nM. The half-maximal effective concentration (EC50) in assay [2] lay within 100 to 1000 nM.
The matching figures for `CC1CC(c2cccc(-n3cc(C4CC4)c4cc(CN(C)C5CCCC5)[nH]c4c3=O)c2)(c2nncn2C)C1` (stereo not drawn) [Example 47, 2-{[cyclopentyl(methyl)amino]methyl}-4-cyclopropyl-6-{3-[3-methyl-1-(4-methyl-4H-1,2,4-triazol-3-yl)cyclobutyl]phenyl}-1H,6H,7H-pyrrolo[2,3-c]pyridin-7-one]: below 100 nM and below 100 nM.
For `CC1CC(c2cccc(-n3cc(C4CC4)c4cc(CN[C@@H]5CCCOC5)[nH]c4c3=O)c2)(c2nncn2C)C1` (stereo partly drawn) [Example 49, 4-cyclopropyl-6-{3-[3-methyl-1-(4-methyl-4H-1,2,4-triazol-3-yl)cyclobutyl]phenyl}-2-{[(oxan-3-yl)amino]methyl}-1H,6H,7H-pyrrolo[2,3-c]pyridin-7-one], in that order: below 100 nM and below 100 nM.
For `CC1CC(c2cccc(-n3cc(C4CC4)c4cc(CN5CCC6(CC5)CC6)[nH]c4c3=O)c2)(c2nncn2C)C1` (stereo not drawn) [Example 50, 2-({6-azaspiro[2.5]octan-6-yl}methyl)-4-cyclopropyl-6-{3-[3-methyl-1-(4-methyl-4H-1,2,4-triazol-3-yl)cyclobutyl]phenyl}-1H,6H,7H-pyrrolo[2,3-c]pyridin-7-one], in that order: below 100 nM and below 100 nM.
In assay [1], `CC1CC(c2cccc(-n3cc(C4CC4)c4cc(CN5C[C@H]6C[C@@H]5CO6)[nH]c4c3=O)c2)(c2nncn2C)C1` (stereo partly drawn) [Example 51, 4-cyclopropyl-6-{3-[3-methyl-1-(4-methyl-4H-1,2,4-triazol-3-yl)cyclobutyl]phenyl}-2-{[(1R,4R)-2-oxa-5-azabicyclo[2.2.1]heptan-5-yl]methyl}-1H,6H,7H-pyrrolo[2,3-c]pyridin-7-one] returned a half-maximal inhibitory concentration (IC50) below 100 nM. The compound also yielded an EC50 in assay [2] of 100 to 1000 nM.
For `CC1CC(c2cccc(-n3cc(C4CC4)c4cc(CN5CC6CCC5C6)[nH]c4c3=O)c2)(c2nncn2C)C1` (stereo not drawn) [Example 52, 2-({2-azabicyclo[2.2.1]heptan-2-yl}methyl)-4-cyclopropyl-6-{3-[3-methyl-1-(4-methyl-4H-1,2,4-triazol-3-yl)cyclobutyl]phenyl}-1H,6H,7H-pyrrolo[2,3-c]pyridin-7-one], in that order: below 100 nM and below 100 nM.
For `CC1CC(c2cccc(-n3cc(C4CC4)c4cc(CN(C)C5CC5)[nH]c4c3=O)c2)(c2nncn2C)C1` (stereo not drawn) [Example 54, 4-cyclopropyl-2-{I[cyclopropyl(methyl)amino]methyl}-6-{3-[3-methyl-1-(4-methyl-4H-1,2,4-triazol-3-yl)cyclobutyl]phenyl}-1H,6H,7H-pyrrolo[2,3-c]pyridin-7-one], in that order: below 100 nM and 100 to 1000 nM.
The matching figures for `CC1CC(c2cccc(-n3cc(C4CC4)c4cc(CN(C)C)[nH]c4c3=O)c2)(c2nncn2C)C1` (stereo not drawn) [Example 55, 4-cyclopropyl-2-[(dimethylamino)methyl]-6-{3-[3-methyl-1-(4-methyl-4H-1,2,4-triazol-3-yl)cyclobutyl]phenyl}-1H,6H,7H-pyrrolo[2,3-c]pyridin-7-one]: below 100 nM and below 100 nM.
In assay [1], `CC1CC(c2cccc(-n3cc(C4CC4)c4cc(CN[C@H]5CCOC5)[nH]c4c3=O)c2)(c2nncn2C)C1` (stereo partly drawn) [Example 56, 4-cyclopropyl-2-({[(3S)-oxolan-3-yl]amino}methyl)-6-{3-[(1r,3s)-3-methyl-1-(4-methyl-4H-1,2,4-triazol-3-yl)cyclobutyl]phenyl}-1H,6H,7H-pyrrolo[2,3-c]pyridin-7-one] yielded an IC50 below 100 nM. Moreover, in assay [2], the 50% effective concentration (EC50) fell in the range of 100 to 1000 nM.
For `CC1CC(c2cccc(-n3cc(C4CC4)c4cc(CN5CCC(F)(F)[C@H](C)C5)[nH]c4c3=O)c2)(c2nncn2C)C1` (stereo partly drawn) [Example 57, 4-cyclopropyl-2-{[(3R)-4,4-difluoro-3-methylpiperidin-1-yl]methyl}-6-{3-[3-methyl-1-(4-methyl-4H-1,2,4-triazol-3-yl)cyclobutyl]phenyl}-1H,6H,7H-pyrrolo[2,3-c]pyridin-7-one], in that order: below 100 nM and 100 to 1000 nM.
For `CC1CC(c2cccc(-n3cc(C4CC4)c4cc(CN5CC(F)(F)C5)[nH]c4c3=O)c2)(c2nncn2C)C1` (stereo not drawn) [Example 58, 4-cyclopropyl-2-[(3,3-difluoroazetidin-1-yl)methyl]-6-{3-[3-methyl-1-(4-methyl-4H-1,2,4-triazol-3-yl)cyclobutyl]phenyl}-1H,6H,7H-pyrrolo[2,3-c]pyridin-7-one], in that order: below 100 nM and 100 to 1000 nM.
For `CC1CC(c2cccc(-n3cc(C4CC4)c4cc(CN5C[C@@H]6C[C@H]5CN6)[nH]c4c3=O)c2)(c2nncn2C)C1` (stereo partly drawn) [Example 59, 4-cyclopropyl-2-{[(1S,4S)-2,5-diazabicyclo[2.2.1]heptan-2-yl]methyl}-6-{3-[3-methyl-1-(4-methyl-4H-1,2,4-triazol-3-yl)cyclobutyl]phenyl}-1H,6H,7H-pyrrolo[2,3-c]pyridin-7-one], in that order: below 100 nM and above 5000 nM.
On to `CC1CC(c2cccc(-n3cc(C4CC4)c4cc(CN5[C@@H]6COC[C@H]5C6)[nH]c4c3=O)c2)(c2nncn2C)C1` (stereo partly drawn) [Example 60, 4-cyclopropyl-6-{3-[3-methyl-1-(4-methyl-4H-1,2,4-triazol-3-yl)cyclobutyl]phenyl}-2-{[(1R,5S)-3-oxa-6-azabicyclo[3.1.1]heptan-6-yl]methyl}-1H,6H,7H-pyrrolo[2,3-c]pyridin-7-one], for which, in assay [1], the IC50 was below 100 nM. In assay [2], the EC50 was in the range of 1000 to 5000 nM.
The matching figures for `CC1CC(c2cccc(-n3cc(C4CC4)c4cc(CN5CCN(C)[C@H](C)C5)[nH]c4c3=O)c2)(c2nncn2C)C1` (stereo partly drawn) [Example 61, 4-cyclopropyl-2-{[(3R)-3,4-dimethylpiperazin-1-yl]methyl}-6-{3-[3-methyl-1-(4-methyl-4H-1,2,4-triazol-3-yl)cyclobutyl]phenyl}-1H,6H,7H-pyrrolo[2,3-c]pyridin-7-one]: 100 to 1000 nM and 1000 to 5000 nM.
In assay [1], `CC1CC(c2cccc(-n3cc(C4CC4)c4cc(CN5C[C@@H]6C[C@H]5CN6C)[nH]c4c3=O)c2)(c2nncn2C)C1` (stereo partly drawn) [Example 62] registered a half-inhibitory concentration (IC50) of 100 to 1000 nM. For the same compound, the EC50 in assay [2] is above 5000 nM.
The matching figures for `CC1CC(c2cccc(-n3cc(C4CC4)c4cc(CN5CCC6(CC6)C5)[nH]c4c3=O)c2)(c2nncn2C)C1` (stereo not drawn) [Example 63, 2-({5-azaspiro[2.4]heptan-5-yl}methyl)-4-cyclopropyl-6-{3-[(1r,3s)-3-methyl-1-(4-methyl-4H-1,2,4-triazol-3-yl)cyclobutyl]phenyl}-1H,6H,7H-pyrrolo[2,3-c]pyridin-7-one]: below 100 nM and below 100 nM.
The matching figures for `CC1CC(c2cccc(-n3cc(C4CC4)c4cc(CN5CCC[C@H](F)C5)[nH]c4c3=O)c2)(c2nncn2C)C1` (stereo partly drawn) [Example 64, 4-cyclopropyl-2-{[(3S)-3-fluoropiperidin-1-yl]methyl}-6-{3-[(1r,3s)-3-methyl-1-(4-methyl-4H-1,2,4-triazol-3-yl)cyclobutyl]phenyl}-1H,6H,7H-pyrrolo[2,3-c]pyridin-7-one]: below 100 nM and 100 to 1000 nM.
The matching figures for `CC1CC(c2cccc(-n3cc(C4CC4)c4cc(CN5C[C@@H](F)C[C@H](F)C5)[nH]c4c3=O)c2)(c2nncn2C)C1` (stereo partly drawn) [Example 65, 4-cyclopropyl-2-{[(3S,5S)-3,5-difluoropiperidin-1-yl]methyl}-6-{3-[(1r,3s)-3-methyl-1-(4-methyl-4H-1,2,4-triazol-3-yl)cyclobutyl]phenyl}-1H,6H,7H-pyrrolo[2,3-c]pyridin-7-one]: below 100 nM and 1000 to 5000 nM.
The compound `CC1CC(c2cccc(-n3cc(C4CC4)c4cc(CN5CCCC(F)(F)C5)[nH]c4c3=O)c2)(c2nncn2C)C1` (stereo not drawn) [Example 66, 4-cyclopropyl-2-[(3,3-difluoropiperidin-1-yl)methyl]-6-{3-[(1r)-3-methyl-1-(4-methyl-4H-1,2,4-triazol-3-yl)cyclobutyl]phenyl}-1H,6H,7H-pyrrolo[2,3-c]pyridin-7-one] registered an IC50 in assay [1] of 100 to 1000 nM. This compound also returned a 50% effective concentration (EC50) in assay [2] of 1000 to 5000 nM.
The matching figures for `CC1CC(c2cccc(-n3cc(C4CC4)c4cc(CN5C[C@H](F)C[C@H](F)C5)[nH]c4c3=O)c2)(c2nncn2C)C1` (stereo partly drawn) [Example 67, 4-cyclopropyl-2-{[(3R,5S)-3,5-difluoropiperidin-1-yl]methyl}-6-{3-[(1r)-3-methyl-1-(4-methyl-4H-1,2,4-triazol-3-yl)cyclobutyl]phenyl}-1H,6H,7H-pyrrolo[2,3-c]pyridin-7-one]: 100 to 1000 nM and 1000 to 5000 nM.

By IC50 is commonly meant the point on the concentration scale where inhibition reaches its midpoint. Lower therefore signals greater potency. One may read the EC50 as the midpoint of the concentration-response curve. Read a high EC50 as weaker potency.
